# Reference: patent US20250144067A1, “PERSONALIZED STARVATION THERAPY FOR CANCER” (Faeth Therapeutics, Inc., priority 2021, published 2025)
# Key:
# [1] = tested on: SW480 colorectal tumour; assay: Anti-tumour activity with low cholesterol diet in SW480 tumour bearing mice; format: in vivo, M-NSG mice
# Text: (§1) A series of in vivo experiments were designed to assess the effect of cholesterol depletion on cancer cell growth. The added role of statin treatment and additional therapeutic agents was studied by dosing mice and assessing tumor growth over a defined time period.
# Immunodeficient M-NSG (NOD-Prkdc^scid Il2rgem1Smoc) mice were subcutaneously injected with human colorectal cancer SW480 cells and matrigel to initiate tumor development and randomly assigned into one of four experimental groups (n=6 per group): normal cholesterol diet “Normal Chol Diet” containing 0.2% dietary cholesterol and vehicle, low cholesterol diet “Low Chol Diet” containing less than 0.05% dietary cholesterol and vehicle, Low Chol Diet treated with atorvastatin at 15 mg/kg, or Low Chol Diet treated with toremifene at 2 mg/kg. Once the tumor volume reached ˜150 mm^3, experimental diets were commenced. Atorvastatin, vehicle, or toremifene treatment by oral gavage was initiated four days after the diet change and continued daily until the tumor volume exceeded 2000 mm^3 or the time end-point of three weeks after treatment initiation was reached. Throughout the course of the study, tumor volume was measured twice per week.
# [2] = tested on: cancer cell lines; assay: Drug validation in multiple cancer cell lines, four media conditions; format: cell-based, human; conditions: cholesterol-free+simvastatin medium compared to the other three media conditions
# Procedure: (§2) A series of experiments were designed to assess the effect of cholesterol depletion and statin treatment on the anti-cancer effect of drugs identified in the FDA drug screens. Cancer cells were grown in media containing cholesterol and cholesterol-free media in the presence or absence of simvastatin. The effect of the drug identified in the FDA drug screens on cancer cell growth was measured.
# […]. Medium 1 was ‘complete medium’ containing all essential nutrients, including cholesterol. Medium 2 was cholesterol-free medium. Medium 3 was cholesterol-free medium supplemented with simvastatin 40 nM. […]
# On Day 5, cell growth was measured by absorbance or fluorescence. For absorbance growth measurements, spent media was discarded, and wells were stained with a crystal violet staining solution, washed, and dried. […] Plates were read using a Biotek Powerwave plate reader to determine the absorbance of the crystal violet released as an indicator of cell growth at a wavelength of 595 nm. For fluorescence growth measurements, 100 μL of a resazurin solution was added to each well and the plate incubated at 37° C. for four hours. Plates were read using a Biotek Powerwave plate reader to determine the fluorescence of reosurfin as an indicator of cell growth at a wavelength of 590 nm. […]
# [3] = tested on: H292 cells; assay: Drug validation in H292 cells, three media conditions; format: cell-based, human; conditions: cholesterol-free medium + simvastatin 40 nM vs complete and cholesterol-free medium
# Procedure: as §2
# On Day 1, cells were seeded at a density of around 7500 cells/well in a Corning 96-well flat bottom culture plate in complete media containing 10% FBS.
# On Day 5, spent media was discarded, and wells were stained with a crystal violet staining solution, washed and dried. 100 μL of 10% acetic acid was added to each well to release the crystal violet taken up by the cells. Plates were read using a Biotek Powerwave plate reader to determine the absorbance of the crystal violet released as an indicator of cell growth at a wavelength of 595 nm.
# Growth curves showing absorbance of crystal violet at 595 nm were plotted from test wells against the logarithmic concentration of the validation drug. FIG. 7A-7C show growth of cancer cell lines in the three media conditions subjected to increasing doses of isavuconazole (FIG. 7A), pitolisant (FIG. 7B), or toremifene (FIG. 7C) from the FDA screen under validation. For each of the drugs being validated, there is a strong ‘left-shift’ in the dose response curve for cells are grown in the cholesterol-free medium+simvastatin.
# [4] = tested on: PC9 lung cancer tumors; assay: Anti-tumour activity with low cholesterol diet in PC9 bearing mice; format: in vivo, C.B-17 SCID mice; conditions: Low Chol Diet + toremifene 2 mg/kg with simvastatin 10 mg/kg, daily oral gavage, compared to simvastatin 20 mg/kg
# Text: as §1
# Immunodeficient C.B-17 SCID (C.B-Igh-1^b/IcrTac-Prkdc^scid) mice were subcutaneously injected with human lung cancer PC9 cells to initiate tumor development and randomly assigned into one of three experimental groups (n=6 per group): “Low Chol Diet” containing less than 0.05% dietary cholesterol and vehicle, Low Chol Diet and simvastatin 20 mg/kg, and Low Chol Diet and simvastatin 10 mg/kg in combination with toremifene 2 mg/kg. Once the tumor volume reached ˜200 mm^3, treatment was commenced with vehicle, simvastatin, and toremifene administered daily by oral gavage. Treatment continued for 28 days or until the tumor volume exceeded 2000 mm^3. Throughout the course of the study, tumor volume was measured twice per week.
smiles,measurement,setting,value
CN(C)CCOc1ccc(/C(=C(/CCCl)c2ccccc2)c2ccccc2)cc1 [toremifene],"tumor growth suppression, rank among the four conditions",[1]; Low Chol Diet + toremifene 2 mg/kg,highest
same,tumor growth suppression,[1]; Low Chol Diet + toremifene 2 mg/kg daily oral gavage vs Low Chol Diet + vehicle,enhanced
same,anti-proliferative activity (dose-response curve shift),[2],strong left-shift
same,anti-proliferative effect of the drug (dose response curve shift),[3],strongly enhanced
same,tumor growth suppression,[4],enhanced the tumor growth suppression
